Values after ≈ are worked out from the molar mass of the structure shown. Read-outs that look alike come from different tables or passages of the source.
Experiments:
[1] = test system: bloodstream-form trypanosome T. brucei brucei 427 strain; test: Trypanosoma brucei brucei high-throughput in vitro drug sensitivity assay (resazurin); format: cell-based; details: for IC50: Trypanosoma brucei
[2] = L929 cytotoxicity evaluation (resazurin); format: cell-based; details: mouse, L929 mouse fibroblast cells; 72 hrs incubation; read-out: Cytotox L-929 IC50
Method: For evaluation of compound effects on mammalian cells, L929 mouse fibroblast cells were used. Cells were maintained as adherent cultures in T-25 vented cap flasks in a humidified incubator at 37° C. in the presence of 5% CO2. Culture media was D-MEM supplemented with 10% fetal bovine serum and 1% penicillin/streptomycin. L929 cells were maintained below confluent levels by sub-culturing at 1:10 dilution twice weekly using 0.05% trypsin for detachment.
Sub-confluent L929 cells were trypsinized, resuspended in fresh media and 10 uL was counted using hemocytometer to determine cell concentration. Cells were diluted to 1×10^4/mL in DMEM, dispensed (100 uL) into 96-well plates using a Multidrop 384 dispenser and allowed to attach overnight. Spent media was replaced with 99.5 uL fresh D-MEM and compounds to be tested were serially diluted in DMSO and 0.5 uL added using a Biomek NX liquid handler. Plates were incubated with compounds for 72 hrs at 37° C. with 5% CO2. Resazurin (20 uL of 12.5 mg/ml stock) from Sigma-Aldrich was added to each well and plates were incubated for an additional 3-4 hrs. Assay plates were read using an EnVision plate reader at an excitation wavelength of 544 nm and emission of 590 nm. Single data points were used to generate sigmoidal dose response curves and determine IC50 values using XLfit curve fitting software from IDBS (Guildford, UK).

[3] = 72 hrs incubation, read-out: T.b. brucei IC50

Row | Compound | IC50 [1, 3] [µg/mL] | IC50 at 72 h [2] [µg/mL] | Selectivity Index (L929 IC50 / T. b. brucei IC50) ([1]; T. b. brucei vs L929) | IC50 ([1]; 72 hrs incubation, read-out: T. b. brucei IC50) [nM] | IC50 ([1]; 72 h, read-out: T.b. brucei IC50 (ug/mL)) [µg/mL]
1 | CC1(C)OB(O)c2cc(NC(=O)c3c(Cl)cccc3Cl)ccc21 [compound 68, 2,6-Dichloro-N-(1-hydroxy-3,3-dimethyl-1,3-dihydro-benzo[c][1,2]oxaborol-6-yl)-benzamide] | 2.23 | > 10 |  |  | 
2 | CC1(C)OB(O)c2cc(NC(=O)c3c(F)cccc3Cl)ccc21 [compound 73, 2-Chloro-6-fluoro-N-(1-hydroxy-3,3-dimethyl-1,3-dihydro-benzo[c][1,2]oxaborol-6-yl)-benzamide] | 2.44 | > 10 |  |  | 
3 | CC1(C)OB(O)c2cc(NC(=O)c3ccc(F)cc3Br)ccc21 [compound 74, 2-Bromo-4-fluoro-N-(1-hydroxy-3,3-dimethyl-1,3-dihydro-benzo[c][1,2]oxaborol-6-yl)-benzamide] | 0.564 | > 10 | >18 | 1490 | 
4 | CC1(C)OB(O)c2cc(NC(=O)c3ccc(C(F)(F)F)cc3C(F)(F)F)ccc21 [compound 79, N-(1-Hydroxy-3,3-dimethyl-1,3-dihydro-benzo[c][1,2]oxaborol-6-yl)-2,4-bis-trifluoromethyl-benzamide] | 1.1 | > 10 |  |  | 
5 | CC1(C)OB(O)c2cc(NC(=O)c3cc(C(F)(F)F)cc(C(F)(F)F)c3)ccc21 [compound 80, N-(1-Hydroxy-3,3-dimethyl-1,3-dihydro-benzo[c][1,2]oxaborol-6-yl)-3,5-bis-trifluoromethyl-benzamide] | > 5 | > 10 |  |  | 
6 | CC1(C)OB(O)c2cc(NC(=O)c3cc(C(F)(F)F)ccc3C(F)(F)F)ccc21 [compound 81, N-(1-Hydroxy-3,3-dimethyl-1,3-dihydro-benzo[c][1,2]oxaborol-6-yl)-2,5-bis-trifluoromethyl-benzamide] | 0.183 | > 10 |  |  | 
7 | CC1(C)OB(O)c2cc(NC(=O)c3cccc(C(F)(F)F)c3F)ccc21 [compound 83, 2-Fluoro-N-(1-hydroxy-3,3-dimethyl-1,3-dihydro-benzo[c][1,2]oxaborol-6-yl)-3-trifluoromethyl-benzamide] | 0.543 | > 10 |  |  | 
8 | CC1(C)OB(O)c2cc(NC(=O)c3ccc(C(F)(F)F)cc3F)ccc21 [compound 84, 2-Fluoro-N-(1-hydroxy-3,3-dimethyl-1,3-dihydro-benzo[c][1,2]oxaborol-6-yl)-4-trifluoromethyl-benzamide] | 0.533 | > 10 |  |  | 
9 | CC1(C)OB(O)c2cc(NC(=O)c3cc(C(F)(F)F)ccc3F)ccc21 [compound 85, 2-Fluoro-N-(1-hydroxy-3,3-dimethyl-1,3-dihydro-benzo[c][1,2]oxaborol-6-yl)-5-trifluoromethyl-benzamide] | 1.14 | > 10 |  |  | 
10 | CC1(C)OB(O)c2cc(NC(=O)c3c(F)cccc3C(F)(F)F)ccc21 [compound 86, 2-Fluoro-N-(1-hydroxy-3,3-dimethyl-1,3-dihydro-benzo[c][1,2]oxaborol-6-yl)-6-trifluoromethyl-benzamide] | 0.425 | > 10 |  |  | 
11 | CC1(C)OB(O)c2cc(NC(=O)c3cc(F)ccc3C(F)(F)F)ccc21 [compound 88, 5-Fluoro-N-(1-hydroxy-3,3-dimethyl-1,3-dihydro-benzo[c][1,2]oxaborol-6-yl)-2-trifluoromethyl-benzamide] | 0.313 | > 10 |  |  | 
12 | CC1(C)OB(O)c2cc(NC(=O)c3cc(C(F)(F)F)ccc3Cl)ccc21 [compound 90, 2-Chloro-N-(1-hydroxy-3,3-dimethyl-1,3-dihydro-benzo[c][1,2]oxaborol-6-yl)-5-trifluoromethyl-benzamide] | 0.514 | > 10 |  |  | 
13 | COc1ccc(C(=O)Nc2ccc3c(c2)B(O)OC3(C)C)cc1C [compound 95, N-(1-Hydroxy-3,3-dimethyl-1,3-dihydro-benzo[c][1,2]oxaborol-6-yl)-4-methoxy-3-methyl-benzamide] | 0.86 | > 10 |  |  | 
14 | COc1cccc(OC)c1C(=O)Nc1ccc2c(c1)B(O)OC2(C)C [compound 96, N-(1-Hydroxy-3,3-dimethyl-1,3-dihydro-benzo[c][1,2]oxaborol-6-yl)-2,6-dimethoxy-benzamide] | 2.72 | > 10 |  |  | 
15 | C=Cc1ccc(C(=O)Nc2ccc3c(c2)B(O)OC3(C)C)c(Cl)c1 [compound 97, 2-Chloro-N-(1-hydroxy-3,3-dimethyl-1,3-dihydro-benzo[c][1,2]oxaborol-6-yl)-4-vinyl-benzamide] |  | > 10 |  |  | 0.05
16 | CC1(C)OB(O)c2cc(NC(=O)c3c(F)ccc(F)c3Cl)ccc21 [compound 104, 2-Chloro-3,6-difluoro-N-(1-hydroxy-3,3-dimethyl-1,3-dihydro-benzo[c][1,2]oxaborol-6-yl)-benzamide] | 1.12 | > 10 |  |  | 

More lines, main results first:

Row | IC50 [1, 3] [µg/mL] | Compound | IC50 at 72 h [2] [µg/mL] | Selectivity Index (L929 IC50 / T. b. brucei IC50) ([1]; T. b. brucei vs L929) | IC50 ([1]; 72 hrs incubation, read-out: T. b. brucei IC50) [nM] | IC50 ([1]; 72 h, read-out: T.b. brucei IC50 (ug/mL)) [µg/mL]
17 | 0.377 | CC1(C)OB(O)c2cc(NC(=O)c3cccc(Cl)c3F)ccc21 [compound 70, 3-Chloro-2-fluoro-N-(1-hydroxy-3,3-dimethyl-1,3-dihydro-benzo[c][1,2]oxaborol-6-yl)-benzamide] | > 10 |  |  | 
18 | 0.697 | CC1(C)OB(O)c2cc(NC(=O)c3ccc(Cl)cc3F)ccc21 [compound 71, 4-Chloro-2-fluoro-N-(1-hydroxy-3,3-dimethyl-1,3-dihydro-benzo[c][1,2]oxaborol-6-yl)-benzamide] | > 10 |  |  | 
19 | 0.407 | CC1(C)OB(O)c2cc(NC(=O)c3cc(Cl)ccc3F)ccc21 [compound 72, 5-Chloro-2-fluoro-N-(1-hydroxy-3,3-dimethyl-1,3-dihydro-benzo[c][1,2]oxaborol-6-yl)-benzamide] | > 10 |  |  | 
20 | 0.405 | CC1(C)OB(O)c2cc(NC(=O)c3ccc(Cl)cc3Br)ccc21 [compound 75, 2-Bromo-4-chloro-N-(1-hydroxy-3,3-dimethyl-1,3-dihydro-benzo[c][1,2]oxaborol-6-yl)-benzamide] | > 10 |  |  | 
21 | 0.05 | CC1(C)OB(O)c2cc(NC(=O)c3ccc(I)cc3Cl)ccc21 [compound 77, 2-Chloro-N-(1-hydroxy-3,3-dimethyl-1,3-dihydro-benzo[c][1,2]oxaborol-6-yl)-4-iodo-benzamide] | > 10 |  |  | 
22 | 1.1 | Cc1ccc(C(=O)Nc2ccc3c(c2)B(O)OC3(C)C)c(C)c1 [compound 78, N-(1-Hydroxy-3,3-dimethyl-1,3-dihydro-benzo[c][1,2]oxaborol-6-yl)-2,4-dimethyl-benzamide] | > 10 |  |  | 
23 | 3.88 | Cc1cc(F)ccc1C(=O)Nc1ccc2c(c1)B(O)OC2(C)C [compound 87, 4-Fluoro-N-(1-hydroxy-3,3-dimethyl-1,3-dihydro-benzo[c][1,2]oxaborol-6-yl)-2-methyl-benzamide] | > 10 |  |  | 
24 | 0.152 | Cc1ccc(C(=O)Nc2ccc3c(c2)B(O)OC3(C)C)c(Cl)c1 [compound 89, 2-Chloro-N-(1-hydroxy-3,3-dimethyl-1,3-dihydro-benzo[c][1,2]oxaborol-6-yl)-4-methyl-benzamide] | > 10 |  |  | 
25 | 0.786 | Cc1cc(Br)ccc1C(=O)Nc1ccc2c(c1)B(O)OC2(C)C [compound 91] | > 10 |  |  | 
26 | 0.158 | CC1(C)OB(O)c2cc(NC(=O)c3cc([N+](=O)[O-])ccc3Cl)ccc21 [compound 92] | 2.68 (≈ 7.43 µM) |  |  | 
27 | 0.197 | CC1(C)OB(O)c2cc(NC(=O)c3ccc([N+](=O)[O-])cc3Cl)ccc21 [compound 93] | > 10 |  |  | 
28 | 0.4 | COc1ccc(C(=O)Nc2ccc3c(c2)B(O)OC3(C)C)c(OC)c1 [compound 94] | > 10 |  |  | 
29 | 0.091 | C=CCc1ccc(C(=O)Nc2ccc3c(c2)B(O)OC3(C)C)c(Cl)c1 [compound 98, 4-Allyl-2-chloro-N-(1-hydroxy-3,3-dimethyl-1,3-dihydro-benzo[c][1,2]oxaborol-6-yl)-benzamide] | > 10 |  |  | 
30 | 0.19 | CC(C)=Cc1ccc(C(=O)Nc2ccc3c(c2)B(O)OC3(C)C)c(Cl)c1 [compound 99, 2-Chloro-N-(1-hydroxy-3,3-dimethyl-1,3-dihydro-benzo[c][1,2]oxaborol-6-yl)-4-(2-methyl-propenyl)-benzamide] | 8.6 (≈ 23.3 µM) |  |  | 
31 | 0.077 | C=C(C)c1ccc(C(=O)Nc2ccc3c(c2)B(O)OC3(C)C)c(Cl)c1 [compound 100, 2-Chloro-N-(1-hydroxy-3,3-dimethyl-1,3-dihydro-benzo[c][1,2]oxaborol-6-yl)-4-isopropenyl-benzamide] | 9.55 (≈ 26.9 µM) |  |  | 
32 | 0.125 | CCCc1ccc(C(=O)Nc2ccc3c(c2)B(O)OC3(C)C)c(Cl)c1 [compound 102, 2-Chloro-N-(1-hydroxy-3,3-dimethyl-1,3-dihydro-benzo[c][1,2]oxaborol-6-yl)-4-propyl-benzamide] | > 10 |  |  | 
33 | 0.184 | CC(C)Cc1ccc(C(=O)Nc2ccc3c(c2)B(O)OC3(C)C)c(Cl)c1 [compound 103] | > 10 |  |  | 

From patent US20110190235A1, “BORON-CONTAINING SMALL MOLECULES AS ANTIPROTOZOAL AGENTS” (Anacor Pharmaceuticals, Inc., priority 2009, published 2011)
